Assay results: patent publication US20110009351A1, “SCREENING ASSAY TO IDENTIFY CORRECTORS OF PROTEIN TRAFFICKING DEFECTS” (Traffick Therepeutics Inc., priority 2007, published 2011)
Counter-ions that a name gives are not always drawn. Like-named read-outs stand apart in the source and are kept apart here.

How the values were obtained:
F508del CFTR = molecular target: T1, F508del CFTR (Homo sapiens, UniProt P13569, DEL508-508); test: YFP fluorescence quenching functional assay (iodide influx), HEK293 cells with F508del CFTR and halide sensitive YFP; assay type: cell-based; conditions: for remaining activity at 10 µM: read-out: % YFP quench
T1 construct: expressed in transfected cells; host or cells: HEK293 Griptite cells stably expressing F508del CFTR, transiently transfected with halide-sensitive eYFP
Experimental: In addition to the MDS compounds, the 1120 Prestwick Library compounds were screened. (See FIGS. 7 to 12.) Of the compounds, one qualified as a “strong” hit, 3 as “medium” hits and 57 as “weak” hits. The Z score for the assay was 0.62. The top 50 hits were further tested in a counter screen in which the halide sensitive fluorescent compound (YFP) was expressed inside cells (Table 2). After incubation with the test compounds the ability of the cells to uptake iodide was measure by decreasing YFP fluorescence. In these cells this can only occur if functional CFTR is present at the cell surface (FIG. 7). The hits were also tested for the appearance of the Band C form of CFTR. […] The functionality of the compounds was further studied by the use of Iodide efflux assays for each compound in both BHK and the more physiologically relevant CFBE cells. […] FIG. 10 is a table of results for the 15 hit compounds which summarizes many experiments. […] The results for the best 15 compounds from the Prestwick Library, or “Prestwick 15”, are shown FIGS. 8, 9 and 10.
Strongly adhesive Human […] Kidney cells stably expressing both the human macrophage scavenger receptor (HEK293 Griptite, Invitrogen) and F508del CFTR were plated in 96-well plates and transiently transfected with pcDNA3 plasmid encoding a halide sensitive variant of eYFP. After 24-48 h later cells were exposed to 10 μM test compound in triplicate and incubated for an additional 24 h. Cells were stimulated for 20 minutes with a in a buffer containing 25 μM forskolin, 45 μM IBMX and 50 μM genistein final concentration. The high content screening assay was performed using a Cellomics platform. Iodide was added robotically to a final concentration of 50 mM and the resulting decrease in fluorescence was measured. Images were taken at time 0 and stored for subsequent use when calculating a mask so that only those cells that express YFP at time 0 are measured. The quenching was detected in 15 images taken over the course of an experiment lasting 40 seconds. Each test compound was compared to the following two controls: a negative control without drugs to assess photobleaching that may occur when the same field of view is repeatedly imaged, and a positive control with cells treated with a known potentiator. Results were generated from 150-300 cells per well.

ΔF508-CFTR = ΔF508-CFTR (Homo sapiens, UniProt P13569, DEL508-508); assay type: cell-based; set-up: which was then ligated into full length pNUT-CFTR linearized using Hpa1 and Pml1; expressed in transfected cells; conditions: for hit in screen (class letter): BHK cells
Experimental: BHK cells expressing 3HA-tagged ΔF508-CFTR between passages 5-8 were seeded in 96-well plates (Corning half area, black-sided, clear bottom) at 15,000 cells per well and incubated with culture medium for 24 h at 37° C. Each well was then treated with a different test compound (80 compounds per plate) for 24 h at 20 μM final concentration. The remaining 16 wells on each plate were used for control conditions. […] Cells were fixed in a 4% paraformaldehyde solution, washed with PBS, and blocked with PBS containing 5% fetal bovine serum (FBS) for 1 hat 4° C.
Blocking solution was replaced with 15 μl of primary antibody solution containing 1% FBS and mouse monoclonal anti-HA antibody (1:150 dilution, Sigma) in PBS. The plates were sealed and left at 4° C. overnight. After three washes with 100 μl PBS, cells were incubated for 1 h with 15 μl of secondary antibody solution containing 1% FBS and anti-mouse IgG conjugated with FITC (1:100 dilution, Sigma) in PBS. Cells were again washed three times with 100 μl of PBS and analyzed in a plate reader (Analyst™ HT96.384, Biosystems; 488 nm excitation/510 nm emission). […] The mean fluorescence of four untreated wells was used as the background signal when calculating deviations of the 80 compound-treated wells. Hits were then cherry-picked into reservoir plates and re-tested in duplicate using the same assay.
BHK cells expressing ΔF508-CFTR were incubated with test compounds (20 μM) for 24 hours at 37° C. in a 96 well format. Plasma membrane expression of ΔF508-CFTR was then assayed by immunofluorescence using a primary antibody directed against the inserted 3HA tag and a secondary antibody conjugated with a fluorophore (FITC). […] The positive compounds were selected and retested in duplicate to obtain an N of 3. At the re-screening stage, the intrinsic fluorescence of each potential hit was also measured and the fluorescent ones were not considered further.
Screening was performed using BHK cells that stably express F508-CFTR bearing three tandem haemagglutinin-epitope tags (3HA) and linker sequences in the fourth extracellular loop after amino acid 901 (Howard et al., 1995; Carlile et al., 2007; Robert et al., 2008). […] Screening was performed using the Prestwick Chemical Library of 1120 high-purity compounds.

[1] = Prestwick library, initial corrector assay
[2] = Prestwick library, initial corrector assay, standard deviations above untreated controls
[3] = HEK293, 10 μM, 24 h, nc = 100% pc = 69.2

Sequence of ΔF508-CFTR (P13569 with tags, fused parts or gaps DEL508-508): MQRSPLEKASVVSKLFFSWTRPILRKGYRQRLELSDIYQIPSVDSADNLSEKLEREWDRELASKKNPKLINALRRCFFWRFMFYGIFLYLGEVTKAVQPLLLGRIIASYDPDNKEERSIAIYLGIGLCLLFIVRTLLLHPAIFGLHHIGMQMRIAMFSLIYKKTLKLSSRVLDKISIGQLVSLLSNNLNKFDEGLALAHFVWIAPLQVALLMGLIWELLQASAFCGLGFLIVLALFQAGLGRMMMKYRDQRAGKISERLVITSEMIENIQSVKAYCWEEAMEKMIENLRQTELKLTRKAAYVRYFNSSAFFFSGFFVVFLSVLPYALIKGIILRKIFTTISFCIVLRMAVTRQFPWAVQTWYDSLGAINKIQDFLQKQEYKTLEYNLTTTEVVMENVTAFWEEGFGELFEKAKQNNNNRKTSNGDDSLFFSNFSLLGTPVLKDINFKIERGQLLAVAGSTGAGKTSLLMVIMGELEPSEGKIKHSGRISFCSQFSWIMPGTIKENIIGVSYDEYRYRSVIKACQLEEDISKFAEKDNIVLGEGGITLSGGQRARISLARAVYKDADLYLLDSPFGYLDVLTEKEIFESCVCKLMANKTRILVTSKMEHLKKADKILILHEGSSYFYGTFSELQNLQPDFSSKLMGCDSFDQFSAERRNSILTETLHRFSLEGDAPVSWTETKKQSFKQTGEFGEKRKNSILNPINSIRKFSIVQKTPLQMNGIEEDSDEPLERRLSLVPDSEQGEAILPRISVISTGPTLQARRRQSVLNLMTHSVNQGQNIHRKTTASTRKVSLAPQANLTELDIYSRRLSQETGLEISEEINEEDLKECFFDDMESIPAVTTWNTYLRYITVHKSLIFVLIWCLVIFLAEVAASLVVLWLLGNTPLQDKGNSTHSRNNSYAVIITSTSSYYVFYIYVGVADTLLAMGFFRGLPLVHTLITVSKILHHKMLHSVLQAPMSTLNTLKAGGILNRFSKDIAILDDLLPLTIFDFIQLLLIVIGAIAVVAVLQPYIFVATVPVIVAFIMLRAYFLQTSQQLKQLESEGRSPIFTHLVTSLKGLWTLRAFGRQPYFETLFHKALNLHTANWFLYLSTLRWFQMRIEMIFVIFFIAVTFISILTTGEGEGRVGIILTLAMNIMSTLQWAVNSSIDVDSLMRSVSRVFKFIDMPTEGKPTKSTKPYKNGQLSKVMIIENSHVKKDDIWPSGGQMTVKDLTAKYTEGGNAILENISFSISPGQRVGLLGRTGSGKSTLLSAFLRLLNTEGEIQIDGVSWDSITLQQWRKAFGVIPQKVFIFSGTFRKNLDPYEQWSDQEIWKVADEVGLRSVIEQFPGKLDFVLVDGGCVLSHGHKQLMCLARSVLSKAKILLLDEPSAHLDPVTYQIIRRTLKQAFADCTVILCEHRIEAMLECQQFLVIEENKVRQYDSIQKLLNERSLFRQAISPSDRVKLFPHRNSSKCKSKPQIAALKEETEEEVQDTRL
T1 sequence (P13569 with tags, fused parts or gaps DEL508-508): as above

## CCN1C[C@]2(COC)CC[C@H](O)[C@@]34C5C[C@@H]6[C@@H](OC)C[C@](O)(C(CC23)C14)C5[C@H]6OC(C)=O (stereo partly shown) [Condelphine]
F508del CFTR; HEK293, 24 h
  remaining activity at 10 µM: 97%
ΔF508-CFTR; [1]
  hit in screen (class letter): W (Medium and weak hits were defined as compounds giving a cell fluorescence signal that was between 2 and 3 or 1 and 2 standard deviations, respectively, above untreated control wells)
ΔF508-CFTR; [2]
  hit in screen (score): 1.6

## C[C@]12C[C@H](O)[C@H]3[C@@H](CCC4=CC(=O)CC[C@@]43C)[C@@H]1CC[C@@H]2C(=O)CO [Corticosterone]
F508del CFTR; [3]
  remaining activity at 10 µM: 90%
ΔF508-CFTR; [1]
  hit in screen (class letter): W (Medium and weak hits were defined as compounds giving a cell fluorescence signal that was between 2 and 3 or 1 and 2 standard deviations, respectively, above untreated control wells)
ΔF508-CFTR; [2]
  hit in screen (score): 1.1

## Nc1ccc(S(=O)(=O)c2ccc(N)cc2)cc1 [Dapsone]
F508del CFTR; [3]
  remaining activity at 10 µM: 88%
ΔF508-CFTR; [1]
  hit in screen (class letter): W (Medium and weak hits were defined as compounds giving a cell fluorescence signal that was between 2 and 3 or 1 and 2 standard deviations, respectively, above untreated control wells)
ΔF508-CFTR; [2]
  hit in screen (score): 1.1

## Cc1cc(N)c2ccccc2[n+]1CCCCCCCCCC[n+]1c(C)cc(N)c2ccccc21.[Cl-].[Cl-] [Dequalinlum dichloride]
F508del CFTR; 10 μM, 24 h, nc = 100% pc = 69.2
  % YFP quench: 102%
ΔF508-CFTR; [1]
  hit in screen (class letter): M (Medium and weak hits were defined as compounds giving a cell fluorescence signal that was between 2 and 3 or 1 and 2 standard deviations, respectively, above untreated control wells)
ΔF508-CFTR; [2]
  hit in screen (score): 2.2

## CCN(CC)C(=O)N1CCN(C)CC1 [Diethylcarbamazine citrate]
F508del CFTR; [3]
  remaining activity at 10 µM: 907%
ΔF508-CFTR; [1]
  hit in screen (class letter): W (Medium and weak hits were defined as compounds giving a cell fluorescence signal that was between 2 and 3 or 1 and 2 standard deviations, respectively, above untreated control wells)
ΔF508-CFTR; [2]
  hit in screen (score): 1.2

## CCn1cc(C(=O)O)c(=O)c2cc(F)c(N3CCNCC3)nc21 [Enoxacin]
F508del CFTR; [3]
  remaining activity at 10 µM: 84%
ΔF508-CFTR; [1]
  hit in screen (class letter): W (Medium and weak hits were defined as compounds giving a cell fluorescence signal that was between 2 and 3 or 1 and 2 standard deviations, respectively, above untreated control wells)
ΔF508-CFTR; [2]
  hit in screen (score): 1.0

## C[C@]12CC[C@H](O)C[C@@H]1CC[C@@H]1[C@@H]2CC[C@]2(C)C(=O)CC[C@@H]12 [Epiandrosterone]
F508del CFTR; HEK293, 24 h
  remaining activity at 10 µM: 93%
ΔF508-CFTR
  hit in screen (score): W 1.0
  signal in the trafficking assay: consistently elevated signal

## COc1cc(C)nc(-n2nc(C)cc2OC)n1 [Epirizole]
F508del CFTR; Functional assay, Prestwick compounds, positive tests / tests
  Bart's scores: 0/5
F508del CFTR; [3]
  remaining activity at 10 µM: 115%
ΔF508-CFTR; [1]
  hit in screen (class letter): W (Medium and weak hits were defined as compounds giving a cell fluorescence signal that was between 2 and 3 or 1 and 2 standard deviations, respectively, above untreated control wells)
ΔF508-CFTR; [2]
  hit in screen (score): 1.3

## C[C@]12CC[C@@H]3c4ccc(OS(=O)(=O)O)cc4CC[C@H]3[C@@H]1CCC2=O [Estropipate]
F508del CFTR; [3]
  remaining activity at 10 µM: 83%
ΔF508-CFTR; [1]
  hit in screen (class letter): W (Medium and weak hits were defined as compounds giving a cell fluorescence signal that was between 2 and 3 or 1 and 2 standard deviations, respectively, above untreated control wells)
ΔF508-CFTR; [2]
  hit in screen (score): 1.0

## CC(C(=O)O)c1cccc(Oc2ccccc2)c1 (stereo not shown) [Fenoprofen calcium salt dihydrate]
F508del CFTR; [3]
  remaining activity at 10 µM: 88%
ΔF508-CFTR; [1]
  hit in screen (class letter): W (Medium and weak hits were defined as compounds giving a cell fluorescence signal that was between 2 and 3 or 1 and 2 standard deviations, respectively, above untreated control wells)
ΔF508-CFTR; [2]
  hit in screen (score): 1.1

## CC(C(=O)O)c1ccc(-c2ccccc2)c(F)c1 (stereo not shown) [Flubiprofen]
F508del CFTR; [3]
  remaining activity at 10 µM: 98%
ΔF508-CFTR; [1]
  hit in screen (class letter): W (Medium and weak hits were defined as compounds giving a cell fluorescence signal that was between 2 and 3 or 1 and 2 standard deviations, respectively, above untreated control wells)
ΔF508-CFTR; [2]
  hit in screen (score): 1.0
